Where a SMILES comes first, the peptide text is derived from it. [ ]: non-standard residue; d: D form. The star is where a group is joined. NHCH2CH2OH = OCCN*; For = O=C*
How the values were obtained:
[1] = H+/Na+ transport assay of bead-derived peptides (one-point); format: biochemical; design: key: relative activity; mean of two control wells = 1.00; settings: bead-derived peptide solution, EYPC/EYPG LUVs;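 note: relative to parent gramicidin A activity set to 1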
In short: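 Pyranine (1.0 mM)-loaded LUVs containing egg yolk phosphatidylglycerol were prepared by film hydration, sonication and extrusion, then mixed with diluted bead-derived peptide in 96-well format and vortexed 30 min at room temperature. Fluorescence was normalized between untreated LUVs (0%) and Triton X-100 lysis (100%).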

[2] = tested on: P388 mouse leukemia cells; settings: 92 h
In short: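 Peptide stocks diluted 250× in growth medium; P388 cells 1 × 10^4 cells/mL final; 37 °C, 5% CO2, 92 h. WST-1 + 1-methoxy PMS, 4 h, A415. Output: % viability.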

[3] = tested on: Streptococcus pyogenes SSI-9; test: Antibacterial activity assay of bead-derived peptides (three concentrations); format: cell-based; design: key: +++: inhibition by the 640-fold diluted peptide solution; ++: inhibition by the 160-fold diluted solution; +: inhibition by the 40-fold diluted solution; -: no inhibition; settings: S. pyogenes, bead-derived peptide solution, three concentrations
In short: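 Growth inhibition scored visually as precipitated bacteria after 37 °C, 18 h incubation. Streptococcus pyogenes SSI-9 inoculum of 2 × 10^5 CFU in Ca2+/Mg2+-adjusted Mueller Hinton broth plus 5% laked horse blood; peptides tested at three levels: stock, 4-fold and 16-fold DMSO dilutions.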

## CC(C)C[C@@H](NC(=O)[C@H](Cc1c[nH]c2ccccc12)NC(=O)[C@@H](CC(C)C)NC(=O)[C@H](Cc1c[nH]c2ccccc12)NC(=O)[C@H](NC(=O)[C@H](Cc1c[nH]c2ccccc12)NC(=O)[C@@H](CC(C)C)NC(=O)[C@@H](NC(=O)[C@H](NC(=O)[C@H](C)NC(=O)[C@H](NC(=O)[C@H](C)NC(=O)CNC(=O)[C@@H](NC=O)C(C)C)C(C)C)C(C)C)C(C)C)C(C)C)C(=O)N[C@@H](Cc1c[nH]c2ccccc12)C(=O)NCCO [compound 10661] (For-VGA[dV]A[dV]V[dL]W[dV]W[dL]W[dL]W-NHCH2CH2OH)
[1]
  H+/Na+ transport activity normalized against the value of 1 (1.00): 1.03
[2]
  cell viability/%: 39.9%
[3]
  antibacterial activity: +

## CC(C)C[C@@H](NC(=O)[C@H](C)NC(=O)[C@H](NC(=O)[C@H](C)NC(=O)CNC(=O)[C@@H](NC=O)C(C)C)C(C)C)C(=O)N[C@H](C(=O)N[C@@H](C(=O)N[C@@H](Cc1c[nH]c2ccccc12)C(=O)N[C@H](CC(C)C)C(=O)N[C@@H](Cc1c[nH]c2ccccc12)C(=O)N[C@@H](C(=O)N[C@@H](Cc1c[nH]c2ccccc12)C(=O)N[C@H](CC(C)C)C(=O)N[C@@H](Cc1c[nH]c2ccccc12)C(=O)NCCO)C(C)C)C(C)C)C(C)C [compound 10261] (For-VGA[dV]A[dL]V[dV]W[dL]W[dV]W[dL]W-NHCH2CH2OH)
[1]
  H+/Na+ transport activity normalized against the value of 1 (1.00): 1.05
[2]
  cell viability/%: 46.3%
[3]
  antibacterial activity: +

## CC(C)C[C@@H](NC(=O)[C@H](C)NC(=O)CNC(=O)[C@@H](NC=O)C(C)C)C(=O)N[C@@H](C)C(=O)N[C@H](CC(C)C)C(=O)N[C@H](C(=O)N[C@H](CC(C)C)C(=O)N[C@@H](Cc1c[nH]c2ccccc12)C(=O)N[C@H](CC(C)C)C(=O)N[C@@H](Cc1c[nH]c2ccccc12)C(=O)N[C@H](CC(C)C)C(=O)N[C@@H](Cc1c[nH]c2ccccc12)C(=O)N[C@@H](C(=O)N[C@@H](Cc1c[nH]c2ccccc12)C(=O)NCCO)C(C)C)C(C)C [compound 10340] (For-VGA[dL]A[dL]V[dL]W[dL]W[dL]W[dV]W-NHCH2CH2OH)
[1]
  H+/Na+ transport activity normalized against the value of 1 (1.00): 1.00
[2]
  cell viability/%: 3.4%
[3]
  antibacterial activity: -

## CC(C)C[C@@H](NC(=O)[C@H](Cc1c[nH]c2ccccc12)NC(=O)[C@H](NC(=O)[C@H](Cc1c[nH]c2ccccc12)NC(=O)[C@@H](CC(C)C)NC(=O)[C@@H](NC(=O)[C@H](NC(=O)[C@H](C)NC(=O)[C@H](NC(=O)[C@H](C)NC(=O)CNC(=O)[C@@H](NC=O)C(C)C)C(C)C)C(C)C)C(C)C)C(C)C)C(=O)N[C@@H](Cc1c[nH]c2ccccc12)C(=O)N[C@@H](C(=O)N[C@@H](Cc1c[nH]c2ccccc12)C(=O)NCCO)C(C)C [compound 12947] (For-VGA[dV]A[dV]V[dL]W[dV]W[dL]W[dV]W-NHCH2CH2OH)
[1]
  H+/Na+ transport activity normalized against the value of 1 (1.00): 1.02
[2]
  cell viability/%: 10.2%
[3]
  antibacterial activity: +

## CC(C)C[C@@H](NC(=O)[C@H](C)NC(=O)[C@H](NC(=O)[C@H](C)NC(=O)CNC(=O)[C@@H](NC=O)C(C)C)C(C)C)C(=O)N[C@H](C(=O)N[C@H](CC(C)C)C(=O)N[C@@H](Cc1c[nH]c2ccccc12)C(=O)N[C@H](CC(C)C)C(=O)N[C@@H](Cc1c[nH]c2ccccc12)C(=O)N[C@H](CC(C)C)C(=O)N[C@@H](Cc1c[nH]c2ccccc12)C(=O)N[C@H](CC(C)C)C(=O)N[C@@H](Cc1c[nH]c2ccccc12)C(=O)NCCO)C(C)C [compound 1343] (For-VGA[dV]A[dL]V[dL]W[dL]W[dL]W[dL]W-NHCH2CH2OH)
[1]
  H+/Na+ transport activity normalized against the value of 1 (1.00): 1.02
[2]
  cell viability/%: 4.0%
[3]
  antibacterial activity: -

## CNC(=O)C[C@@H](NC(=O)[C@H](Cc1c[nH]c2ccccc12)NC(=O)[C@@H](CC(C)C)NC(=O)[C@H](Cc1c[nH]c2ccccc12)NC(=O)[C@H](NC(=O)[C@H](Cc1c[nH]c2ccccc12)NC(=O)[C@H](NC(=O)[C@@H](NC(=O)[C@@H](CC(C)C)NC(=O)[C@H](C)NC(=O)[C@H](NC(=O)[C@H](C)NC(=O)CNC(=O)[C@@H](NC=O)C(C)C)C(C)C)C(C)C)C(C)C)C(C)C)C(=O)N[C@@H](Cc1c[nH]c2ccccc12)C(=O)NCCO [compound 13317] (For-VGA[dV]A[dL]V[dV]W[dV]W[dL]W[dD](NHMe)W-NHCH2CH2OH)
[1]
  H+/Na+ transport activity normalized against the value of 1 (1.00): 1.04
[2]
  cell viability/%: 100.0%
[3]
  antibacterial activity: -

## CNC(=O)C[C@@H](NC(=O)[C@@H](NC(=O)[C@@H](CC(C)C)NC(=O)[C@H](C)NC(=O)[C@H](NC(=O)[C@H](C)NC(=O)CNC(=O)[C@@H](NC=O)C(C)C)C(C)C)C(C)C)C(=O)N[C@@H](Cc1c[nH]c2ccccc12)C(=O)N[C@H](CC(C)C)C(=O)N[C@@H](Cc1c[nH]c2ccccc12)C(=O)N[C@@H](C(=O)N[C@@H](Cc1c[nH]c2ccccc12)C(=O)N[C@@H](C(=O)N[C@@H](Cc1c[nH]c2ccccc12)C(=O)NCCO)C(C)C)C(C)C [compound 6822] (For-VGA[dV]A[dL]V[dD](NHMe)W[dL]W[dV]W[dV]W-NHCH2CH2OH)
[1]
  H+/Na+ transport activity normalized against the value of 1 (1.00): 1.23
[2]
  cell viability/%: 100.0%
[3]
  antibacterial activity: -

## CC(C)C[C@@H](NC(=O)[C@H](Cc1c[nH]c2ccccc12)NC(=O)[C@H](NC(=O)[C@H](Cc1c[nH]c2ccccc12)NC(=O)[C@H](NC(=O)[C@@H](NC(=O)[C@H](NC(=O)[C@H](C)NC(=O)[C@H](NC(=O)[C@H](C)NC(=O)CNC(=O)[C@@H](NC=O)C(C)C)[C@H](C)O)C(C)C)C(C)C)C(C)C)C(C)C)C(=O)N[C@@H](Cc1c[nH]c2ccccc12)C(=O)N[C@@H](C(=O)N[C@@H](Cc1c[nH]c2ccccc12)C(=O)NCCO)C(C)C [compound 6820] (For-VGA[dT]A[dV]V[dV]W[dV]W[dL]W[dV]W-NHCH2CH2OH)
[1]
  H+/Na+ transport activity normalized against the value of 1 (1.00): 1.20
[2]
  cell viability/%: 100.0%
[3]
  antibacterial activity: -

## CC(C)C[C@@H](NC(=O)[C@H](C)NC(=O)CNC(=O)[C@@H](NC=O)C(C)C)C(=O)N[C@@H](C)C(=O)N[C@H](CC(C)C)C(=O)N[C@H](C(=O)N[C@@H](C(=O)N[C@@H](Cc1c[nH]c2ccccc12)C(=O)N[C@@H](C(=O)N[C@@H](Cc1c[nH]c2ccccc12)C(=O)N[C@@H](C(=O)N[C@@H](Cc1c[nH]c2ccccc12)C(=O)N[C@H](CC(C)C)C(=O)N[C@@H](Cc1c[nH]c2ccccc12)C(=O)NCCO)C(C)C)[C@H](C)O)C(C)C)C(C)C [compound 4031] (For-VGA[dL]A[dL]V[dV]W[dT]W[dV]W[dL]W-NHCH2CH2OH)
[1]
  H+/Na+ transport activity normalized against the value of 1 (1.00): 1.05
[2]
  cell viability/%: 92.4%
[3]
  antibacterial activity: -

## CC(C)C[C@@H](NC(=O)[C@H](Cc1c[nH]c2ccccc12)NC(=O)[C@H](NC(=O)[C@H](Cc1c[nH]c2ccccc12)NC(=O)[C@H](NC(=O)[C@@H](NC(=O)[C@H](NC(=O)[C@H](C)NC(=O)[C@H](NC(=O)[C@H](C)NC(=O)CNC(=O)[C@@H](NC=O)C(C)C)[C@H](C)O)C(C)C)C(C)C)C(C)C)C(C)C)C(=O)N[C@@H](Cc1c[nH]c2ccccc12)C(=O)N[C@@H](C(=O)N[C@@H](Cc1c[nH]c2ccccc12)C(=O)NCCO)C(C)C [compound 5933] (For-VGA[dT]A[dV]V[dV]W[dV]W[dL]W[dV]W-NHCH2CH2OH)
[1]
  H+/Na+ transport activity normalized against the value of 1 (1.00): 1.05
[2]
  cell viability/%: 73.0%
[3]
  antibacterial activity: -

## CNC(=O)C[C@@H](NC(=O)[C@@H](NC(=O)[C@H](NC(=O)[C@H](C)NC(=O)[C@H](NC(=O)[C@H](C)NC(=O)CNC(=O)[C@@H](NC=O)C(C)C)C(C)C)C(C)C)C(C)C)C(=O)N[C@@H](Cc1c[nH]c2ccccc12)C(=O)N[C@H](CC(C)C)C(=O)N[C@@H](Cc1c[nH]c2ccccc12)C(=O)N[C@H](CC(C)C)C(=O)N[C@@H](Cc1c[nH]c2ccccc12)C(=O)N[C@H](CC(C)C)C(=O)N[C@@H](Cc1c[nH]c2ccccc12)C(=O)NCCO [compound 7437] (For-VGA[dV]A[dV]V[dD](NHMe)W[dL]W[dL]W[dL]W-NHCH2CH2OH)
[1]
  H+/Na+ transport activity normalized against the value of 1 (1.00): 1.11
[2]
  cell viability/%: 100.0%
[3]
  antibacterial activity: -

## CC(C)C[C@@H](NC(=O)[C@@H](NC(=O)[C@H](NC(=O)[C@H](C)NC(=O)[C@H](NC(=O)[C@H](C)NC(=O)CNC(=O)[C@@H](NC=O)C(C)C)[C@H](C)O)C(C)C)C(C)C)C(=O)N[C@@H](Cc1c[nH]c2ccccc12)C(=O)N[C@@H](C(=O)N[C@@H](Cc1c[nH]c2ccccc12)C(=O)N[C@@H](C(=O)N[C@@H](Cc1c[nH]c2ccccc12)C(=O)N[C@@H](C(=O)N[C@@H](Cc1c[nH]c2ccccc12)C(=O)NCCO)C(C)C)C(C)C)C(C)C [compound 3631] (For-VGA[dT]A[dV]V[dL]W[dV]W[dV]W[dV]W-NHCH2CH2OH)
[1]
  H+/Na+ transport activity normalized against the value of 1 (1.00): 1.02
[2]
  cell viability/%: 100.0%
[3]
  antibacterial activity: -

## CC(C)C[C@@H](NC(=O)[C@H](C)NC(=O)CNC(=O)[C@@H](NC=O)C(C)C)C(=O)N[C@@H](C)C(=O)N[C@@H](C(=O)N[C@H](C(=O)N[C@@H](C(=O)N[C@@H](Cc1c[nH]c2ccccc12)C(=O)N[C@@H](C(=O)N[C@@H](Cc1c[nH]c2ccccc12)C(=O)N[C@H](CC(C)C)C(=O)N[C@@H](Cc1c[nH]c2ccccc12)C(=O)N[C@H](CC(C)C)C(=O)N[C@@H](Cc1c[nH]c2ccccc12)C(=O)NCCO)C(C)C)[C@H](C)O)C(C)C)C(C)C [compound 9832] (For-VGA[dL]A[dV]V[dT]W[dV]W[dL]W[dL]W-NHCH2CH2OH)
[1]
  H+/Na+ transport activity normalized against the value of 1 (1.00): 1.26
[2]
  cell viability/%: 100.0%
[3]
  antibacterial activity: -
